US10526327B2, “Histone demethylase inhibitors” (CELGENE QUANTICEL RESEARCH, INC., priority 2013, dated 2020)

Target: T1, Jarid1A (Homo sapiens, UniProt P29375)
T1 construct: purchased BPS Bioscience 50110
T1 sequence (P29375 1-1090): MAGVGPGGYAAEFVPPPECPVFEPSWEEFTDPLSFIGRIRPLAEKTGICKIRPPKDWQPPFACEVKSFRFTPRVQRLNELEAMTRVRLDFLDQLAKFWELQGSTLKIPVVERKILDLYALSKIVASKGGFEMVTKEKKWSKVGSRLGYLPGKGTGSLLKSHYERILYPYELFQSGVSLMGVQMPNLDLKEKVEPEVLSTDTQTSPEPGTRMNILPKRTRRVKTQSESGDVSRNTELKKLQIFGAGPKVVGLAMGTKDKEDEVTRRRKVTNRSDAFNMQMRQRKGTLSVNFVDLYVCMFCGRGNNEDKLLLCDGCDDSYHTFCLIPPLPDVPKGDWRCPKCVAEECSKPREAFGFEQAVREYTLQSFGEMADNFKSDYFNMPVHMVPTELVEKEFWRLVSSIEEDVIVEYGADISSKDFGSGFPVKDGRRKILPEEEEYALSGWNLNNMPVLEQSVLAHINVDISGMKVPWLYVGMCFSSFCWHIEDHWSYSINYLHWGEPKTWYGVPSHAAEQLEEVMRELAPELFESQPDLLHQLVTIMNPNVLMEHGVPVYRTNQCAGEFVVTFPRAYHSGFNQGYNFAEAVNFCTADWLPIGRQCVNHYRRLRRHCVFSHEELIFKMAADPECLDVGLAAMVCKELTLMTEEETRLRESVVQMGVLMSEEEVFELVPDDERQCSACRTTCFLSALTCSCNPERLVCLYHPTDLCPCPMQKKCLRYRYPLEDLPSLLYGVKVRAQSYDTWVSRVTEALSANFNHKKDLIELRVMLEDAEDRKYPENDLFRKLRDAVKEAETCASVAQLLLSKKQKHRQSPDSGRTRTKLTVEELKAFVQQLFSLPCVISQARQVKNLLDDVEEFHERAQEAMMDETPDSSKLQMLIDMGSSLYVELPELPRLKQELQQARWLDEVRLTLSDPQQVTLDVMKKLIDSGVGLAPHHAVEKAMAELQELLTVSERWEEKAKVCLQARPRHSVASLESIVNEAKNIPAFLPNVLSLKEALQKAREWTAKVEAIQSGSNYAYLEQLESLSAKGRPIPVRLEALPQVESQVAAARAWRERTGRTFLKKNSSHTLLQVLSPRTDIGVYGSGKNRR
Assay: Jarid1A in vitro enzyme inhibition assay (TR-FRET)
Type: biochemical
In short: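 Demethylation of 300 nM biotin-H3K4me3 peptide by 1 nM baculovirus-expressed Jarid1A (aa 1–1090) with 2 μM α-ketoglutarate, Fe(II) and ascorbate, pH 7.3, 30 min at room temperature. Stopped with EDTA; H3K4me1-2 product detected by TR-FRET (Eu anti-H3K4me1-2/streptavidin-APC). IC50 fitted from 665/615 ratio over 11-point dilutions.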

IC50 [nM]	Compound
≤ 100	O=C(c1ccccc1)N1CC[C@@H](n2cc(Oc3nc(O)c4ccncc4n3)cn2)C1 [Example 132, 2-({1-[(3R)-1-benzoylpyrrolidin-3-yl]-1H-pyrazol-4-yl}oxy)pyrido[3,4-d]pyrimidin-4-ol]
≤ 100	Oc1nc(Oc2cnn([C@@H]3CCN(Cc4ccccc4)C3)c2)nc2cnccc12 [Example 133, 2-({1-[(3R)-1-benzylpyrrolidin-3-yl]-1H-pyrazol-4-yl}oxy)pyrido[3,4-d]pyrimidin-4-ol]
≤ 100	Oc1nc(Oc2cnn([C@@H]3CCN(c4ccc(F)cc4)C3)c2)nc2cnccc12 [Example 134, 2-({1-[(3R)-1-(4-fluorophenyl)pyrrolidin-3-yl]-1H-pyrazol-4-yl}oxy)pyrido[3,4-d]pyrimidin-4-ol]
100 to 1000	Oc1nc(Oc2cnn([C@H]3CCNC3)c2)nc2cnccc12 [Example 135, 2-({1-[(3S)-pyrrolidin-3-yl]-1H-pyrazol-4-yl}oxy)pyrido[3,4-d]pyrimidin-4-ol]
≤ 100	CCS(=O)(=O)N1CC[C@H](n2cc(Oc3nc(O)c4ccncc4n3)cn2)C1 [Example 136, 2-({1-[(3S)-1-(ethanesulfonyl)pyrrolidin-3-yl]-1H-pyrazol-4-yl}oxy)pyrido[3,4-d]pyrimidin-4-ol]
≤ 100	O=S(=O)(C1CC1)N1CC[C@H](n2cc(Oc3nc(O)c4ccncc4n3)cn2)C1 [Example 137, 2-({1-[(3S)-1-(cyclopropanesulfonyl)pyrrolidin-3-yl]-1H-pyrazol-4-yl}oxy)pyrido[3,4-d]pyrimidin-4-ol]
≤ 100	O=S(=O)(c1ccccc1)N1CC[C@H](n2cc(Oc3nc(O)c4ccncc4n3)cn2)C1 [Example 138, 2-({1-[(3S)-1-(benzenesulfonyl)pyrrolidin-3-yl]-1H-pyrazol-4-yl}oxy)pyrido[3,4-d]pyrimidin-4-ol]
≤ 100	CC(=O)N1CC[C@H](n2cc(Oc3nc(O)c4ccncc4n3)cn2)C1 [Example 139, 1-[(3S)-3-[4-({4-hydroxypyrido[3,4-d]pyrimidin-2-yl}oxy)-1H-pyrazol-1-yl]pyrrolidin-1-yl]ethan-1-one]
≤ 100	N#CCC(=O)N1CC[C@H](n2cc(Oc3nc(O)c4ccncc4n3)cn2)C1 [Example 140, 3-[(3S)-3-[4-({4-hydroxypyrido[3,4-d]pyrimidin-2-yl}oxy)-1H-pyrazol-1-yl]pyrrolidin-1-yl]-3-oxopropanenitrile]
≤ 100	O=C(C1CC1)N1CC[C@H](n2cc(Oc3nc(O)c4ccncc4n3)cn2)C1 [Example 141, 2-({1-[(3S)-1-cyclopropanecarbonylpyrrolidin-3-yl]-1H-pyrazol-4-yl}oxy)pyrido[3,4-d]pyrimidin-4-ol]
≤ 100	O=C(c1ccccc1)N1CC[C@H](n2cc(Oc3nc(O)c4ccncc4n3)cn2)C1 [Example 142, 2-({1-[(3S)-1-benzoylpyrrolidin-3-yl]-1H-pyrazol-4-yl}oxy)pyrido[3,4-d]pyrimidin-4-ol]
≤ 100	O=C(C1CCNCC1)N1CC[C@H](n2cc(Oc3nc(O)c4ccncc4n3)cn2)C1 [Example 143, 2-({1-[(3S)-1-(piperidine-4-carbonyl)pyrrolidin-3-yl]-1H-pyrazol-4-yl}oxy)pyrido[3,4-d]pyrimidin-4-ol]
≤ 100	CNCC(=O)N1CC[C@H](n2cc(Oc3nc(O)c4ccncc4n3)cn2)C1 [Example 144, 1-[(3S)-3-[4-({4-hydroxypyrido[3,4-d]pyrimidin-2-yl}oxy)-1H-pyrazol-1-yl]pyrrolidin-1-yl]-2-(methylamino)ethan-1-one]
≤ 100	Oc1nc(Oc2cnn([C@H]3CCN(c4ccccc4)C3)c2)nc2cnccc12 [Example 145, 2-({1-[(3S)-1-phenylpyrrolidin-3-yl]-1H-pyrazol-4-yl}oxy)pyrido[3,4-d]pyrimidin-4-ol]
≤ 100	Oc1nc(Oc2cnn([C@H]3CCN(c4ccc(F)cc4)C3)c2)nc2cnccc12 [Example 146, 2-({1-[(3S)-1-(4-fluorophenyl)pyrrolidin-3-yl]-1H-pyrazol-4-yl}oxy)pyrido[3,4-d]pyrimidin-4-ol]
≤ 100	Oc1nc(Oc2cnn([C@H]3CCN(c4ccccc4F)C3)c2)nc2cnccc12 [Example 147, 2-({1-[(3S)-1-(2-fluorophenyl)pyrrolidin-3-yl]-1H-pyrazol-4-yl}oxy)pyrido[3,4-d]pyrimidin-4-ol]

IC50 [nM]	Compound
≤ 100	Oc1nc(Oc2cnn([C@H]3CCN(c4ccc(Cl)cc4)C3)c2)nc2cnccc12 [Example 148, 2-({1-[(3S)-1-(4-chlorophenyl)pyrrolidin-3-yl]-1H-pyrazol-4-yl}oxy)pyrido[3,4-d]pyrimidin-4-ol]
≤ 100	Oc1nc(Oc2cnn([C@@H]3CCCNC3)c2)nc2cnccc12 [Example 149, 2-({1-[(3R)-piperidin-3-yl]-1H-pyrazol-4-yl}oxy)pyrido[3,4-d]pyrimidin-4-ol]
≤ 100	CCS(=O)(=O)N1CCC[C@@H](n2cc(Oc3nc(O)c4ccncc4n3)cn2)C1 [Example 150, 2-({1-[(3R)-1-(ethanesulfonyl)piperidin-3-yl]-1H-pyrazol-4-yl}oxy)pyrido[3,4-d]pyrimidin-4-ol]
≤ 100	O=S(=O)(c1ccccc1)N1CCC[C@@H](n2cc(Oc3nc(O)c4ccncc4n3)cn2)C1 [Example 152, 2-({1-[(3R)-1-(benzenesulfonyl)piperidin-3-yl]-1H-pyrazol-4-yl}oxy)pyrido[3,4-d]pyrimidin-4-ol]
≤ 100	CC(=O)N1CCC[C@@H](n2cc(Oc3nc(O)c4ccncc4n3)cn2)C1 [Example 153, 1-[(3R)-3-[4-({4-hydroxypyrido[3,4-d]pyrimidin-2-yl}oxy)-1H-pyrazol-1-yl]piperidin-1-yl]ethan-1-one]
≤ 100	N#CCC(=O)N1CCC[C@@H](n2cc(Oc3nc(O)c4ccncc4n3)cn2)C1 [Example 154, 3-[(3R)-3-[4-({4-hydroxypyrido[3,4-d]pyrimidin-2-yl}oxy)-1H-pyrazol-1-yl]piperidin-1-yl]-3-oxopropanenitrile]
≤ 100	O=C(CO)N1CC[C@H](n2cc(Oc3nc(O)c4ccncc4n3)cn2)C1 [Example 155, 2-hydroxy-1-[(3S)-3-[4-({4-hydroxypyrido[3,4-d]pyrimidin-2-yl}oxy)-1H-pyrazol-1-yl]pyrrolidin-1-yl]ethan-1-one]
≤ 100	O=C(C1CC1)N1CCC[C@@H](n2cc(Oc3nc(O)c4ccncc4n3)cn2)C1 [Example 156, 2-({1-[(3R)-1-cyclopropanecarbonylpiperidin-3-yl]-1H-pyrazol-4-yl}oxy)pyrido[3,4-d]pyrimidin-4-ol]
≤ 100	O=C(c1ccccc1)N1CCC[C@@H](n2cc(Oc3nc(O)c4ccncc4n3)cn2)C1 [Example 157, 2-({1-[(3R)-1-benzoylpiperidin-3-yl]-1H-pyrazol-4-yl}oxy)pyrido[3,4-d]pyrimidin-4-ol]
≤ 100	Oc1nc(Oc2cnn([C@@H]3CCCN(Cc4ccccc4)C3)c2)nc2cnccc12 [Example 158, 2-({1-[(3R)-1-benzylpiperidin-3-yl]-1H-pyrazol-4-yl}oxy)pyrido[3,4-d]pyrimidin-4-ol]
≤ 100	Oc1nc(Oc2cnn([C@@H]3CCCN(c4ccc(F)cc4)C3)c2)nc2cnccc12 [Example 159, 2-({1-[(3R)-1-(4-fluorophenyl)piperidin-3-yl]-1H-pyrazol-4-yl}oxy)pyrido[3,4-d]pyrimidin-4-ol]
≤ 100	Oc1nc(Oc2cnn([C@H]3CCCNC3)c2)nc2cnccc12 [Example 160, 2-({1-[(3S)-piperidin-3-yl]-1H-pyrazol-4-yl}oxy)pyrido[3,4-d]pyrimidin-4-ol]
≤ 100	CCS(=O)(=O)N1CCC[C@H](n2cc(Oc3nc(O)c4ccncc4n3)cn2)C1 [Example 161, 2-({1-[(3S)-1-(ethanesulfonyl)piperidin-3-yl]-1H-pyrazol-4-yl}oxy)pyrido[3,4-d]pyrimidin-4-ol]
≤ 100	O=S(=O)(C1CC1)N1CCC[C@H](n2cc(Oc3nc(O)c4ccncc4n3)cn2)C1 [Example 162, 2-({1-[(3S)-1-(cyclopropanesulfonyl)piperidin-3-yl]-1H-pyrazol-4-yl}oxy)pyrido[3,4-d]pyrimidin-4-ol]
≤ 100	O=S(=O)(c1ccccc1)N1CCC[C@H](n2cc(Oc3nc(O)c4ccncc4n3)cn2)C1 [Example 163, 2-({1-[(3S)-1-(benzenesulfonyl)piperidin-3-yl]-1H-pyrazol-4-yl}oxy)pyrido[3,4-d]pyrimidin-4-ol]
